According to patent US20260355196A1, “INHIBITORS AND DEGRADERS OF PIP4K PROTEIN” (Larkspur Biosciences, Inc., priority 2023, published 2026):

target: T1, PIP4K2C (Homo sapiens, UniProt Q8TBX8); experiment: HiBiT PIP4K2C degradation assay in MOLT-4 cells (endogenous PIP4K2C C-terminally tagged with HiBiT); format: cell-based; design: untagged in primary human PBMCs and monocyte-derived dendritic cells; details: 6 hours of incubation time, rather than 24 hours; MOLT-4, top concentration 10 micromolar; read-out: HiBIT-degradation MOLT4 PIP4k2C DC50 (6 hours, marked *)
T1 sequence (Q8TBX8 1-421): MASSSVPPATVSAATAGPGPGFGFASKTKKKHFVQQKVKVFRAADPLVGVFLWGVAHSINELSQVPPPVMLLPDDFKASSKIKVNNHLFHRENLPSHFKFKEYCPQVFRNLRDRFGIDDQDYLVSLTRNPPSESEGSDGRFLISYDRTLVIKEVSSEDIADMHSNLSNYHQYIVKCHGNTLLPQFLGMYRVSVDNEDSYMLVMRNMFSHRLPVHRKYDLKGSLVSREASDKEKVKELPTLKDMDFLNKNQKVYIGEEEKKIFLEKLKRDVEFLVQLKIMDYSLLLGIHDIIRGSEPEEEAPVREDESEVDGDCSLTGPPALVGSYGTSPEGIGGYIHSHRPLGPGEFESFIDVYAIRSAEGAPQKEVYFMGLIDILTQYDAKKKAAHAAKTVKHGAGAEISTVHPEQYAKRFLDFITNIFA
In short: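 Cells are plated onto compound dilutions (10 points, 3-fold, top 10 micromolar) and incubated 24 or 6 hours at 37 C. Lytic HiBiT detection then quantifies tagged endogenous PIP4K2C in MOLT-4, and a Hill fit yields DC50.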

DC50, < 500 nM:
O=C1CCC(Nc2ccc(N3CCN([C@H]4CC[C@H](C(=O)N[C@H]5CC[C@H](Nc6ncc(F)c(-c7cccc(C8CC8)c7)n6)CC5)CC4)CC3)c(F)c2)C(=O)N1 (stereo partly drawn) [Compound 559, trans-N-(trans-4-((4-(3-cyclopropylphenyl)-5-fluoropyrimidin-2-yl)amino)cyclohexyl)-4-(4-(4-((2,6-dioxopiperidin-3-yl)amino)-2-fluorophenyl)piperazin-1-yl)cyclohexane-1-carboxamide]
O=C1CCC(Nc2ccc(N3CCN(C[C@H]4CC[C@H](CC(=O)N[C@H]5CC[C@H](Nc6ncc(F)c(-c7cccc(N8CCCCC8=O)c7)n6)CC5)CC4)CC3)c(F)c2)C(=O)N1 (stereo partly drawn) [Compound 560, trans-2-((1r,4R)-4-((4-(4-((2,6-dioxopiperidin-3-yl)amino)-2-fluorophenyl)piperazin-1-yl)methyl)cyclohexyl)-N-((1r,4R)-4-((5-fluoro-4-(3-(2-oxopiperidin-1-yl)phenyl)pyrimidin-2-yl)amino)cyclohexyl)acetamide]
O=C1CCC(Nc2ccc(N3CCN(C[C@H]4CC[C@H](CC(=O)N[C@H]5CC[C@H](Nc6ncc(F)c(-c7cccc(N8CCCOC8=O)c7)n6)CC5)CC4)CC3)c(F)c2)C(=O)N1 (stereo partly drawn) [Compound 561, trans-2-((1r,4R)-4-((4-(4-((2,6-dioxopiperidin-3-yl)amino)-2-fluorophenyl)piperazin-1-yl)methyl)cyclohexyl)-N-((1r,4R)-4-((5-fluoro-4-(3-(2-oxo-1,3-oxazinan-3-yl)phenyl)pyrimidin-2-yl)amino)cyclohexyl)acetamide]
O=C1CCC(Nc2ccc(N3CCN(C[C@H]4CC[C@H](CC(=O)N[C@H]5CC[C@H](Nc6ncc(F)c(-c7cccc(N8CCOCC8=O)c7)n6)CC5)CC4)CC3)c(F)c2)C(=O)N1 (stereo partly drawn) [Compound 562, trans-2-((1r,4R)-4-((4-(4-((2,6-dioxopiperidin-3-yl)amino)-2-fluorophenyl)piperazin-1-yl)methyl)cyclohexyl)-N-((1r,4R)-4-((5-fluoro-4-(3-(3-oxomorpholino)phenyl)pyrimidin-2-yl)amino)cyclohexyl)acetamide]
O=C1CCC(Nc2ccc(C3CCN([C@H]4CC[C@H](NC(=O)[C@H]5CC[C@H](Nc6ncc(F)c(-c7cccc(N8CCCOC8=O)c7)n6)CC5)CC4)CC3)c(F)c2)C(=O)N1 (stereo partly drawn) [Compound 563, trans-N-(trans-4-(4-(4-((2,6-dioxopiperidin-3-yl)amino)-2-fluorophenyl)piperidin-1-yl)cyclohexyl)-4-((5-fluoro-4-(3-(2-oxo-1,3-oxazinan-3-yl)phenyl)pyrimidin-2-yl)amino)cyclohexane-1-carboxamide]
O=C1CCC(Nc2ccc(N3CCN([C@H]4CC[C@H](NC(=O)[C@H]5CC[C@H](Nc6ncc(F)c(-c7cccc(N8CCCCC8=O)c7)n6)CC5)CC4)CC3)c(F)c2)C(=O)N1 (stereo partly drawn) [Compound 564, (1r,4R)—N-((1r,4R)-4-(4-(4-((2,6-dioxopiperidin-3-yl)amino)-2-fluorophenyl)piperazin-1-yl)cyclohexyl)-4-((5-fluoro-4-(3-(2-oxopiperidin-1-yl)phenyl)pyrimidin-2-yl)amino)cyclohexane-1-carboxamide]
O=C1CCC(Nc2ccc(C3CCN([C@H]4CC[C@H](NC(=O)[C@H]5CC[C@H](Nc6ncc(F)c(-c7cccc(N8CCCCC8=O)c7)n6)CC5)CC4)CC3)c(F)c2)C(=O)N1 (stereo partly drawn) [Compound 565, trans-N-(trans-4-(4-(4-((2,6-dioxopiperidin-3-yl)amino)-2-fluorophenyl)piperidin-1-yl)cyclohexyl)-4-((5-fluoro-4-(3-(2-oxopiperidin-1-yl)phenyl)pyrimidin-2-yl)amino)cyclohexane-1-carboxamide]
O=C1CCC(Nc2ccc(C3CCN([C@H]4CC[C@H](C(=O)N[C@H]5CC[C@H](Nc6ncc(F)c(-c7cccc(N8CCCCC8=O)n7)n6)CC5)CC4)CC3)c(F)c2)C(=O)N1 (stereo partly drawn) [Compound 566, trans-(1r,4R)-4-(4-(4-((2,6-dioxopiperidin-3-yl)amino)-2-fluorophenyl)piperidin-1-yl)-N-((1r,4R)-4-((5-fluoro-4-(6-(2-oxopiperidin-1-yl)pyridin-2-yl)pyrimidin-2-yl)amino)cyclohexyl)cyclohexane-1-carboxamide]
O=C1CCC(Nc2ccc(C3CCN([C@H]4CC[C@H](C(=O)N[C@H]5CC[C@H](Nc6ncc(F)c(-c7cccc(-n8ccccc8=O)n7)n6)CC5)CC4)CC3)c(F)c2)C(=O)N1 (stereo partly drawn) [Compound 567, trans-(1r,4R)-4-(4-(4-((2,6-dioxopiperidin-3-yl)amino)-2-fluorophenyl)piperidin-1-yl)-N-((1r,4R)-4-((5-fluoro-4-(2-oxo-2H-[1,2′-bipyridin]-6′-yl)pyrimidin-2-yl)amino)cyclohexyl)cyclohexane-1-carboxamide]
O=C1CCC(Nc2ccc(C3CCN([C@H]4CC[C@H](C(=O)N[C@H]5CC[C@H](Nc6ncc(F)c(-c7cccc(N8CCOCC8=O)c7)n6)CC5)CC4)CC3)c(F)c2)C(=O)N1 (stereo partly drawn) [Compound 568, trans-(1r,4R)-4-(4-(4-((2,6-dioxopiperidin-3-yl)amino)-2-fluorophenyl)piperidin-1-yl)-N-((1r,4R)-4-((5-fluoro-4-(3-(3-oxomorpholino)phenyl)pyrimidin-2-yl)amino)cyclohexyl)cyclohexane-1-carboxamide]
O=C1CCC(Nc2ccc(C3CCN([C@H]4CC[C@H](C(=O)N[C@H]5CC[C@H](Nc6ncc(F)c(-c7ccnc(C8(O)CCC8)c7)n6)CC5)CC4)CC3)c(F)c2)C(=O)N1 (stereo partly drawn) [Compound 569, trans-(1r,4R)-4-(4-(4-((2,6-dioxopiperidin-3-yl)amino)-2-fluorophenyl)piperidin-1-yl)-N-((1r,4R)-4-((5-fluoro-4-(2-(1-hydroxycyclobutyl)pyridin-4-yl)pyrimidin-2-yl)amino)cyclohexyl)cyclohexane-1-carboxamide]
O=C1CCC(Nc2ccc(C3CCN([C@H]4CC[C@H](C(=O)N[C@H]5CC[C@H](Nc6ncc(F)c(-c7ccnc(N8CCOCC8=O)c7)n6)CC5)CC4)CC3)c(F)c2)C(=O)N1 (stereo partly drawn) [Compound 570, trans-(1r,4R)-4-(4-(4-((2,6-dioxopiperidin-3-yl)amino)-2-fluorophenyl)piperidin-1-yl)-N-((1r,4R)-4-((5-fluoro-4-(2-(3-oxomorpholino)pyridin-4-yl)pyrimidin-2-yl)amino)cyclohexyl)cyclohexane-1-carboxamide]
O=C1CCC(Nc2ccc(C3CCN([C@H]4CC[C@H](C(=O)N[C@H]5CC[C@H](Nc6ncc(F)c(-c7ccnc(N8CCCCC8=O)c7)n6)CC5)CC4)CC3)c(F)c2)C(=O)N1 (stereo partly drawn) [Compound 571, trans-(1r,4R)-4-(4-(4-((2,6-dioxopiperidin-3-yl)amino)-2-fluorophenyl)piperidin-1-yl)-N-((1r,4R)-4-((5-fluoro-4-(2-(2-oxopiperidin-1-yl)pyridin-4-yl)pyrimidin-2-yl)amino)cyclohexyl)cyclohexane-1-carboxamide]
O=C1CCC(Nc2ccc(C3CCN([C@H]4CC[C@H](C(=O)N[C@H]5CC[C@H](Nc6ncc(F)c(-c7ccnc(N8CCCOC8=O)c7)n6)CC5)CC4)CC3)c(F)c2)C(=O)N1 (stereo partly drawn) [Compound 572, trans-(1r,4R)-4-(4-(4-((2,6-dioxopiperidin-3-yl)amino)-2-fluorophenyl)piperidin-1-yl)-N-((1r,4R)-4-((5-fluoro-4-(2-(2-oxo-1,3-oxazinan-3-yl)pyridin-4-yl)pyrimidin-2-yl)amino)cyclohexyl)cyclohexane-1-carboxamide]
O=C1CCC(Nc2ccc(C3CCN([C@H]4CC[C@H](C(=O)N[C@H]5CC[C@H](Nc6ncc(F)c(-c7ccnc(-n8ccccc8=O)c7)n6)CC5)CC4)CC3)c(F)c2)C(=O)N1 (stereo partly drawn) [Compound 573, trans-(1r,4R)-4-(4-(4-((2,6-dioxopiperidin-3-yl)amino)-2-fluorophenyl)piperidin-1-yl)-N-((1r,4R)-4-((5-fluoro-4-(2-oxo-2H-[1,2′-bipyridin]-4′-yl)pyrimidin-2-yl)amino)cyclohexyl)cyclohexane-1-carboxamide]
Cc1ccc(=O)n(-c2cccc(-c3nc(N[C@H]4CC[C@H](NC(=O)[C@H]5CC[C@H](N6CCC(c7ccc(NC8CCC(=O)NC8=O)cc7F)CC6)CC5)CC4)ncc3F)c2)c1 (stereo partly drawn) [Compound 574, trans-(1r,4R)-4-(4-(4-((2,6-dioxopiperidin-3-yl)amino)-2-fluorophenyl)piperidin-1-yl)-N-((1r,4R)-4-((5-fluoro-4-(3-(5-methyl-2-oxopyridin-1 (2H)-yl)phenyl)pyrimidin-2-yl)amino)cyclohexyl)cyclohexane-1-carboxamide]
O=C1CCC(Nc2ccc(N3CCC(N4CC5(CC(C(=O)N[C@H]6CC[C@H](Nc7ncc(F)c(-c8cccc(-n9ccccc9=O)c8)n7)CC6)C5)C4)CC3)c(F)c2)C(=O)N1 (stereo partly drawn) [Compound 575, trans-2-(1-(4-((2,6-dioxopiperidin-3-yl)amino)-2-fluorophenyl)piperidin-4-yl)-N-((1r,4r)-4-((5-fluoro-4-(3-(2-oxopyridin-1(2H)-yl)phenyl)pyrimidin-2-yl)amino)cyclohexyl)-2-azaspiro[3.3]heptane-6-carboxamide]
